Data published in patent US10865216B2, “Tricyclic Gyrase inhibitors” (MERCK SHARP & DOHME CORP., priority 2012, dated 2020).
Values after ≈ are worked out from the molar mass of the structure shown. Like-named read-outs stand apart in the source and are kept apart here.

What was measured:
S. aureus ATCC 13709 = experiment: MIC, S. aureus ATCC 13709; assay type: cell-based; details: for MIC: Staphylococcus aureus
E. coli ATCC 25922 = experiment: MIC, E. coli ATCC 25922; assay type: cell-based; details: for MIC: Escherichia coli
[1] = S. aureus, Alamar Blue read after overnight incubation at 35° C.
[2] = E. coli, Alamar Blue read after overnight incubation at 35° C.
[3] = ATCC13709, S. aureus, Alamar Blue read after overnight incubation at 35° C., read-out: MIC Sa
[4] = ATCC25922, E. coli, Alamar Blue read after overnight incubation at 35° C., read-out: MIC Ec

Row | MIC Sa (S. aureus ATCC 13709; [1]) [µg/mL] | MIC Ec (E. coli ATCC 25922; [2]) [µg/mL] | MIC (S. aureus ATCC 13709; [3]) [µg/mL] | MIC (E. coli ATCC 25922; [4]) [µg/mL] | SMILES | also measured
1 | ≤0.5 | ≤0.5 |  |  | CNc1cc(F)cc2c1[nH]c1nc(Oc3cnc(C4CC4)nc3)nc(N3CC4CCNC4C3)c12 (centres unmarked) [Compound 4.250] | 
2 |  |  | 8 (≈ 19 µM) | 64 (≈ 152 µM) | CNc1ncnc2c1[nH]c1nc(Oc3cncc(F)c3)nc(N3CC(N)C4(CC4)C3)c12 (centres unmarked) [Compound 7.06] | 
3 | ≤0.5 | 1 (≈ 2.06 µM) |  |  | CNc1cc(F)cc2c1[nH]c1nc(Oc3cnc4cccnc4c3)nc(N3CC4CC(N)CC4C3)c12 (centres unmarked) [Compound 4.046] | 
4 |  |  | 2 (≈ 4.47 µM) | > 16 | CNc1cc(F)cc2c1[nH]c1nc(Oc3cnc(C)nc3)nc(-c3ccc(F)cc3CN)c12 [Compound 4.445] | 
5 | ≤0.5 | 2 (≈ 4.2 µM) |  |  | CNc1cc(F)cc2c1[nH]c1nc(Oc3cnc(C)nc3)nc(N3C[C@@H]4C(N)CC(C)(C)[C@@H]4C3)c12 (some centres unmarked) [Compound 4.097] | 
6 | ≤0.5 | 2 (≈ 4.45 µM) |  |  | CNc1cc(F)cc2c1[nH]c1nc(Oc3cnc(N)nc3)nc(N3CC4CCC(N)C4C3)c12 (centres unmarked) [Compound 4.189] | 
7 | ≤0.5 | ≤0.5 |  |  | CNc1cc(F)cc2c1[nH]c1nc(Oc3cncc(C#N)c3)nc(N3CCC4(CC4N)C3)c12 (centres unmarked) [Compound 4.052] | 
8 | 16 (≈ 34.8 µM) | >16 |  |  | CNc1cc(F)cc2c1[nH]c1nc(Oc3cnc4[nH]cnc4c3)nc(N3CC4CCNC4C3)c12 (centres unmarked) [Compound 4.312] | 
9 | ≤0.5 | 1 (≈ 1.98 µM) |  |  | CNc1cc(F)cc2c1[nH]c1nc(Oc3cnc(N4CCOCC4)nc3)nc(N3CC(N)C4(CC4)C3)c12 (centres unmarked) [Compound 4.213] | 
10 | ≤0.5 | 1 (≈ 2.16 µM) |  |  | CNc1cc(F)cc2c1[nH]c1nc(Oc3cnc(C(C)C)nc3)nc(N3CC4CC(N)C4C3)c12 (centres unmarked) [Compound 4.234] | 
11 | ≤0.5 | ≤0.5 |  |  | CNc1cc(F)cc2c1[nH]c1nc(Oc3cnc4cccnc4c3)nc(N3CC4(CC4N)C3)c12 (centres unmarked) [Compound 4.042] | 

The next lines start with the compound.

Row | SMILES | MIC Sa (S. aureus ATCC 13709; [1]) [µg/mL] | MIC Ec (E. coli ATCC 25922; [2]) [µg/mL] | MIC (S. aureus ATCC 13709; [3]) [µg/mL] | MIC (E. coli ATCC 25922; [4]) [µg/mL] | also measured
12 | CNc1cc(F)c(F)c2c1[nH]c1nc(Oc3cnc([C@H](C)O)nc3)nc(N3C[C@H]4C[C@@H]3C[C@H]4N)c12 [Compound 10.25] |  |  |  |  | MIC Sa (S. aureus ATCC 13709; Table 18, Sa): ≤ 0.5 µg/mL; MIC Ec (E. coli ATCC 25922; Table 18, Ec): ≤ 0.5 µg/mL
13 | CNc1cc(F)cc2c1[nH]c1nc(Cc3cnc(C)nc3)nc(N3CC4C(N)C4C3)c12 (centres unmarked) [drawing 1736] |  |  |  |  | SA MIC (S. aureus ATCC 13709; Table 11, compounds wherein L = CH2): ≤ 0.5 µg/mL; EC8 MIC (E. coli ATCC 25922; Table 11, L = CH2, EC8 not defined): 0.25 µg/mL
14 | CNc1cccc2c1[nH]c1nc(Oc3cncnc3)cc(N3CC(N)C4(CC4)C3)c12 (centres unmarked) [Compound 3.45] |  |  | ≤ 0.5 | ≤ 0.5 | 
15 | CNc1cccc2c1[nH]c1nc(Sc3cnc4ccc[n+]([O-])c4c3)nc(N3CCC4(CC4N)C3)c12 (centres unmarked) [Compound 1.38] |  |  | ≤ 0.5 | 2 (≈ 4.13 µM) | 
16 | CNc1cccc2c1[nH]c1nc(Oc3cncc(F)c3)cc(N3CC4CNC4C3)c12 (centres unmarked) [Compound 3.7] |  |  | 1 (≈ 2.47 µM) | 4 (≈ 9.89 µM) | 
17 | CNc1cccc2c1[nH]c1nc(Sc3cnc4cccnc4c3)nc(N3CCN(C(C)=O)CC3)c12 [Compound 1.67] |  |  | ≤ 0.5 | > 64 | 
18 | CNc1cccc2c1[nH]c1nc(Sc3cnc4ccc[n+]([O-])c4c3)nc(N3CC(CNC(=O)c4cn(C)nc4C(F)(F)F)C3)c12 [Compound 1.21] |  |  | ≤ 0.5 | > 64 | 
19 | CNc1cccc2c1[nH]c1nc(Oc3cncnc3)cc(N3CC(F)[C@@H](N)C3)c12 (some centres unmarked) [Compound 3.63] |  |  | ≤ 0.5 | 8 (≈ 20.3 µM) | 
20 | CNc1cccc2c1[nH]c1nc(Oc3ccc(C(=O)OC)nc3)cc(N3CC4C(N)C4C3)c12 (centres unmarked) [Compound 3.21] |  |  | ≤ 0.5 | 1 (≈ 2.25 µM) | 
21 | CNc1cc(F)cc2c1[nH]c1nc(Oc3cnc4c(C)cnn4c3)nc(N3CC4C[C@@H](N)C4C3)c12 (some centres unmarked) [Compound 10.30] |  |  |  |  | MIC Sa (S. aureus ATCC 13709; Table 18, Sa): ≤ 0.5 µg/mL; MIC Ec (E. coli ATCC 25922; Table 18, Ec): ≤ 0.5 µg/mL
22 | CNc1cc(F)cc2c1[nH]c1nc(Oc3cnc(C)nc3)nc(C3=CCNCC3)c12 [Compound 4.162] | 8 (≈ 19.7 µM) | >16 |  |  | 
23 | CNc1cccc2c1[nH]c1nc(Sc3cnc4ccc[n+]([O-])c4c3)nc(N3C[C@@H]4[C@@H](CN)[C@@H]4C3)c12 [Compound 1.18] |  |  | ≤ 0.5 | 2 (≈ 4.13 µM) | 
24 | CNc1cc(F)cc2c1[nH]c1nc(Oc3cnc(C)nc3)nc(N3CC(N)C(C(=O)N4CCOCC4)C3)c12 (centres unmarked) [drawing 1827] |  |  |  |  | MIC (S. aureus ATCC 13709; ATCC13709, Table 16, new R4 substituents, read-out: SA MIC): 1 µg/mL (≈ 1.92 µM); MIC (E. coli ATCC 25922; ATCC25922, Table 16, new R4 substituents, EC8 not defined, read-out: EC8 MIC): 16 µg/mL (≈ 30.7 µM)
25 | CNc1ccc(C)c2c1[nH]c1nc(Sc3cnc4ccc[n+]([O-])c4c3)nc(N3CC4C(N)C4C3)c12 (centres unmarked) [Compound 1.73] |  |  | ≤ 0.5 | 8 (≈ 16.5 µM) | 
26 | CNc1cc(F)cc2c1[nH]c1nc(Nc3cnc4ccnn4c3)nc(N3C[C@H]4C[C@@H]3C[C@H]4N)c12 [Compound 10.45] |  |  |  |  | MIC Sa (S. aureus ATCC 13709; Table 18, Sa): ≤ 0.5 µg/mL; MIC Ec (E. coli ATCC 25922; Table 18, Ec): ≤ 0.5 µg/mL
27 | CNc1cc(F)cc2c1[nH]c1nc(Oc3cnc(N(C)N)nc3)nc(N3C[C@H]4C[C@@H]3C[C@H]4N)c12 [Compound 10.98] |  |  |  |  | MIC Sa (S. aureus ATCC 13709; Table 18, Sa): ≤ 0.5 µg/mL; MIC Ec (E. coli ATCC 25922; Table 18, Ec): ≤ 0.5 µg/mL
28 | CNc1cccc2c1[nH]c1nc(Oc3ccc[n+]([O-])c3)cc(Oc3cnc(C)nc3)c12 [Compound 3.39] |  |  | 2 (≈ 4.83 µM) | 64 (≈ 154 µM) | 
